In paper PMC7714071, “Interaction of amyloid beta with humanin and acetylcholinesterase is modulated by ATP” (FEBS Open Bio, 2020):

System: Aβ from H1299 cell-conditioned media
Experiment: ELISA, HN (endogenous and exogenously added) and AChE bound to Aβ from H1299 media on 82E1 antibody
Format: binding, human
Conditions: H1299 media, Fig. 6B
Experimental: Human NSCLC cell lines, A549 (ATCC CCL‐185) and H1299 (ATCC CRL‐5803), were purchased from the American Type Culture Collection (ATCC, Manassas, VA, USA). Cells were seeded as we reported earlier in 5 mL HyClone Dulbecco's modified Eagle's medium/nutrient mixture F‐12 (DMEM/F12) (GE Healthcare Life Sciences, Pittsburgh, PA, USA), supplemented with 10% Fetalgro bovine growth serum (FBS; RMBIO, Missoula, MT, USA), 50 U·mL^−1 penicillin, and […] streptomycin (Invitrogen, Life Technologies, Carlsbad, CA, USA) in 25‐cm^2 tissue culture flasks, and allowed to grow overnight in an incubator at 37 °C, 95% humidity, and 5% CO2. The cells were counted after trypan blue staining, with a hemocytometer.
ELISAs were carried out as we previously reported. Nunc MaxiSorp 96‐well flat bottom plate (Thermo Fisher) wells were coated with samples as indicated. The plates were incubated overnight at 4 °C on a shaker to allow binding of the samples to the plate wells. After the incubation, the wells were washed 4× with TBST, filled with 400 µL blocking buffer (110 mM KCl, 5 mM NaHCO3, 5 mM MgCl2, 1 mM EGTA, 0.1 mM CaCl2, 20 mM HEPES, 1% BSA, pH 7.4), and incubated with shaking overnight at 4 °C. The wells were then washed 4× with TBST, and 100 µL of sample at the desired concentration was added to each well and incubated with shaking overnight at 4 °C. TBST was then used to wash the wells 4× before proceeding in one of two ways: (a) biotinylated samples were analyzed by adding 100 µL streptavidin–HRP conjugate in TBST (1 : 2500 dilution) to the samples followed by incubation for 3 h at RT on a shaker, or (b) samples without biotin were analyzed by adding 100 µL TBST containing the primary antibody as per the manufacturer's recommendation, incubating for 3 h at RT on a shaker, followed by washing the wells 4× with TBST. […] The reaction was stopped with 100 µL 2 M H2SO4 after incubating at RT for 0.5–15 min, resulting in a yellow color change, measured by absorbance at 450 nm. […] Before analysis, the OD from the data was corrected for nonspecific binding by subtracting the mean background absorbance for the negative controls. […] Statistical analysis was determined by the […] […] Data were expressed as the mean ± SD. […]
Anti‐Aβ‐specific antibodies (82E1) were added (1 : 1000 dilution) to ELISA plate wells (Fig. 6). The wells were blocked, and then, 300 µL of the conditioned media (0.5 µg·µL^−1) of A549 or H1299 cells, 72 h postserum starvation, was added in the absence or presence of increasing HN concentrations, and the HN and AChE bound were detected using the corresponding specific primary antibodies. Fold change relative to controls that included all components but without the primary antibodies was calculated and fit with a nonlinear regression curve using the […] […]

Molecule	effect of ATP on binding of exogenously added HN to Aβ (0.1 mM, 1 mM ATP (more pronounced at 1 mM))	effect of ATP on binding of endogenous HN to Aβ (increasing ATP (0.1 mM, 1 mM; more pronounced at 1 mM), 82E1)	HN concentration at which signal begins to level off (exogenous HN)	binding of exogenous HN to Aβ (increasing exogenous HN, 82E1)
Nc1ncnc2c1ncn2[C@@H]1O[C@H](COP(=O)(O)OP(=O)(O)OP(=O)(O)O)[C@@H](O)[C@H]1O [ATP, Adenosine triphosphate]	decreased binding of exogenously added HN	increased binding of endogenous HN		
Humanin [HN]			around 50 nM	increased binding to Aβ
